Patent EP4635500A1, “THERAPEUTIC AGENT FOR BACTERIAL INFECTION” (Sumitomo Pharma Co., Ltd., priority 2022, dated 2024)
Read-outs that look alike come from different tables or passages of the source.

Experiments:
A. baumannii = experiment: MIC, broth microdilution, CDC/FDA Antibiotic Resistance Isolate Bank (Example 7, Tables 9, 13, 14); assay type: cell-based, Acinetobacter baumannii; settings: for MIC: read-out: MIC
Enterobacterales = experiment: MIC, broth microdilution, CDC/FDA Antibiotic Resistance Isolate Bank (Example 7, Tables 8, 11, 12); assay type: cell-based; settings: for MIC: read-out: MIC

CO/N=C(\C(=O)N[C@@H]1C(=O)N2C(C(=O)[O-])=C(C[n+]3ccn4ncccc43)CS[C@H]12)c1nsc(N)n1 [Cefozopran, cefozopran]
0.06 µg/mL: MIC (Enterobacterales; Escherichia coli, KUB No. 5574, AR Bank # 77) | MIC (Enterobacterales; Escherichia coli, KUB No. 5764, AR Bank # 368)
4: Number of isolates at MIC >64 µg/mL (A. baumannii; MIC distribution, metallo-β-lactamase-producing A. baumannii, inhibitor µg/mL in parentheses)
32 µg/mL: MIC (A. baumannii; Acinetobacter baumannii, A. baumannii KUB No. 5598, AR Bank #101, OXA-24, OXA-65) | MIC (A. baumannii; Acinetobacter baumannii, A. baumannii KUB No. 5716, AR Bank #283, OXA-23, OXA-66) | MIC (A. baumannii; Acinetobacter baumannii, A. baumannii KUB No. 5718, AR Bank #285, OXA-24, OXA-65) | MIC (A. baumannii; Acinetobacter baumannii, KUB No. 5719, AR Bank #286) | MIC (A. baumannii; Acinetobacter baumannii, KUB No. 5720, AR Bank #287) | MIC (A. baumannii; Acinetobacter baumannii, KUB No. 5724, AR Bank #291) | MIC (A. baumannii; Acinetobacter baumannii, KUB No. 5736, AR Bank #303) | MIC (Enterobacterales; Enterobacter cloacae, KUB No. 5590, AR Bank # 93) | MIC (Enterobacterales; Escherichia coli, KUB No. 5601, AR Bank # 104) | MIC (Enterobacterales; Escherichia coli, KUB No. 5765, AR Bank # 369)
0.5 µg/mL: MIC (Enterobacterales; Escherichia coli, KUB No. 5578, AR Bank # 81) | MIC (Enterobacterales; Escherichia coli, KUB No. 5586, AR Bank # 89)
64 µg/mL: MIC (A. baumannii; Acinetobacter baumannii, A. baumannii KUB No. 5706, AR Bank #273, OXA-23, OXA-66) | MIC (A. baumannii; Acinetobacter baumannii, A. baumannii KUB No. 5708, AR Bank #275, OXA-23, OXA-66) | MIC (A. baumannii; Acinetobacter baumannii, A. baumannii KUB No. 5710, AR Bank #277, OXA-24, OXA-65) | MIC (A. baumannii; Acinetobacter baumannii, A. baumannii KUB No. 5711, AR Bank #278, OXA-23, OXA-66) | MIC (A. baumannii; Acinetobacter baumannii, A. baumannii KUB No. 5712, AR Bank #279, OXA-23, OXA-66) | MIC (A. baumannii; Acinetobacter baumannii, A. baumannii KUB No. 5715, AR Bank #282, OXA-23, OXA-66) | MIC (A. baumannii; Acinetobacter baumannii, KUB No. 5721, AR Bank #288) | MIC (A. baumannii; Acinetobacter baumannii, KUB No. 5728, AR Bank #295) | MIC (A. baumannii; Acinetobacter baumannii, KUB No. 5730, AR Bank #297) | MIC (A. baumannii; Acinetobacter baumannii, KUB No. 5739, AR Bank #306) | MIC (A. baumannii; Acinetobacter baumannii, KUB No. 5742, AR Bank #309) | MIC (A. baumannii; Acinetobacter baumannii, KUB No. 5743, AR Bank #310) | MIC (A. baumannii; Acinetobacter baumannii, KUB No. 5746, AR Bank #313) | MIC50 (A. baumannii; Acinetobacter baumannii, 55 isolates of A. baumannii, read-out: MIC50) | MIC50 (Enterobacterales; 154 strains of Enterobacterales, read-out: MIC50) | MIC (Enterobacterales; Escherichia coli, Escherichia coli KUB No. 5795, AR Bank #451) | MIC (Enterobacterales; Escherichia coli, KUB No. 5766, AR Bank # 370)
8 µg/mL: MIC (A. baumannii; Acinetobacter baumannii, A. baumannii KUB No. 5599, AR Bank #102, OXA-66) | MIC (A. baumannii; Acinetobacter baumannii, A. baumannii KUB No. 5713, AR Bank #280, OXA-66) | MIC (A. baumannii; Acinetobacter baumannii, A. baumannii KUB No. 5714, AR Bank #281, OXA-82) | MIC (A. baumannii; Acinetobacter baumannii, KUB No. 5722, AR Bank #259) | MIC (A. baumannii; Acinetobacter baumannii, KUB No. 5733, AR Bank #300) | MIC (A. baumannii; Acinetobacter baumannii, KUB No. 5737, AR Bank #304) | MIC (Enterobacterales; Enterobacter cloacae, KUB No. 5547, AR Bank# 50) | MIC (Enterobacterales; Escherichia coli, KUB No. 5582, AR Bank # 85)
> 64 µg/mL: MIC (A. baumannii; Acinetobacter baumannii, A. baumannii KUB No. 5575, AR Bank #78, OXA-71) | MIC (A. baumannii; Acinetobacter baumannii, A. baumannii KUB No. 5580, AR Bank #83, OXA-23, OXA-69, NDM-1) | MIC (A. baumannii; Acinetobacter baumannii, A. baumannii KUB No. 5585, AR Bank #88, OXA-64, NDM-1) | MIC (A. baumannii; Acinetobacter baumannii, A. baumannii KUB No. 5709, AR Bank #276, no carbapenemase genes (-)) | MIC (A. baumannii; Acinetobacter baumannii, KUB No. 5723, AR Bank #290) | MIC (A. baumannii; Acinetobacter baumannii, KUB No. 5727, AR Bank #294) | MIC (A. baumannii; Acinetobacter baumannii, KUB No. 5729, AR Bank #296) | MIC (A. baumannii; Acinetobacter baumannii, KUB No. 5732, AR Bank #299) | MIC (A. baumannii; Acinetobacter baumannii, KUB No. 5734, AR Bank #301) | MIC (A. baumannii; Acinetobacter baumannii, KUB No. 5735, AR Bank #302) | MIC (A. baumannii; Acinetobacter baumannii, KUB No. 5744, AR Bank #311) | MIC80 (A. baumannii; Acinetobacter baumannii, 55 isolates of A. baumannii, read-out: MIC80) | MIC90 (A. baumannii; Acinetobacter baumannii, 55 isolates of A. baumannii, read-out: MIC90) | MIC80 (Enterobacterales; 154 strains of Enterobacterales, read-out: MIC80) | MIC90 (Enterobacterales; 154 strains of Enterobacterales, read-out: MIC90) | MIC (Enterobacterales; Citrobacter freundii, KUB No. 5654, AR Bank # 157) | MIC (Enterobacterales; Enterobacter cloacae, Enterobacter cloacae KUB No. 5792, AR Bank #448) | MIC (Enterobacterales; Enterobacter cloacae, Enterobacter cloacae KUB No. 5807, AR Bank #501) | MIC (Enterobacterales; Enterobacter cloacae, Enterobacter cloacae KUB No. 5808, AR Bank #502) | MIC (Enterobacterales; Enterobacter cloacae, KUB No. 5535, AR Bank# 38) | MIC (Enterobacterales; Enterobacter cloacae, KUB No. 5550, AR Bank# 53) | MIC (Enterobacterales; Enterobacter cloacae, KUB No. 5660, AR Bank # 163) | MIC (Enterobacterales; Enterobacter cloacae, KUB No. 5778, AR Bank # 432) | MIC (Enterobacterales; Enterobacter cloaccae, KUB No. 5651, AR Bank # 154) | MIC (Enterobacterales; Enterobacter clooreae, KUB No. 5633, AR Bank # 136) | MIC (Enterobacterales; Escherichia coli, Escherichia coli KUB No. 5783, AR Bank #437) | MIC (Enterobacterales; Escherichia coli, Escherichia coli KUB No. 5794, AR Bank #450) | MIC (Enterobacterales; Escherichia coli, Escherichia coli KUB No. 5796, AR Bank #452) | MIC (Enterobacterales; Escherichia coli, Escherichia coli KUB No. 5803, AR Bank #861) | MIC (Enterobacterales; Escherichia coli, KUB No. 5566, AR Bank # 69) | MIC (Enterobacterales; Escherichia coli, KUB No. 5583, AR Bank # 86) | MIC (Enterobacterales; Escherichia coli, KUB No. 5615, AR Bank # 118) | MIC (Enterobacterales; Escherichia coli, KUB No. 5616, AR Bank # 119) | MIC (Enterobacterales; Escherichia coli, KUB No. 5625, AR Bank # 128) | MIC (Enterobacterales; Escherichia coli, KUB No. 5634, AR Bank # 137) | MIC (Enterobacterales; Escherichia coli, KUB No. 5646, AR Bank # 149) | MIC (Enterobacterales; Escherichia coli, KUB No. 5647, AR Bank # 150) | MIC (Enterobacterales; Escherichia coli, KUB No. 5648, AR Bank # 151) | MIC (Enterobacterales; Escherichia coli, KUB No. 5659, AR Bank # 162)
2 µg/mL: MIC (A. baumannii; Acinetobacter baumannii, A. baumannii KUB No. 5567, AR Bank #70, OXA-58, OXA-100) | MIC (Enterobacterales; Enterobacter cloacae, KUB No. 5557, AR Bank# 60)
1 µg/mL: MIC (Enterobacterales; Enterobacter cloacae, Enterobacter cloacae complex, KUB No. 5661, AR Bank # 164)
16 µg/mL: MIC (A. baumannii; Acinetobacter baumannii, A. baumannii KUB No. 5707, AR Bank #274, OXA-66, OXA-72) | MIC (A. baumannii; Acinetobacter baumannii, A. baumannii KUB No. 5717, AR Bank #284, OXA-24, OXA-65) | MIC (A. baumannii; Acinetobacter baumannii, KUB No. 5725, AR Bank #292) | MIC (A. baumannii; Acinetobacter baumannii, KUB No. 5726, AR Bank #293) | MIC (A. baumannii; Acinetobacter baumannii, KUB No. 5731, AR Bank #298) | MIC (A. baumannii; Acinetobacter baumannii, KUB No. 5738, AR Bank #305) | MIC (A. baumannii; Acinetobacter baumannii, KUB No. 5740, AR Bank #307) | MIC (A. baumannii; Acinetobacter baumannii, KUB No. 5745, AR Bank #312) | MIC (Enterobacterales; Enterobacter cloacae, KUB No. 5562, AR Bank # 65) | MIC (Enterobacterales; Enterobacter cloacae, KUB No. 5569, AR Bank # 72) | MIC (Enterobacterales; Enterobacter cloacae, KUB No. 5761, AR Bank # 365) | MIC (Enterobacterales; Enterobacter cloacae, KUB No. 5762, AR Bank # 366) | MIC (Enterobacterales; Escherichia coli, KUB No. 5558, AR Bank # 61) | MIC (Enterobacterales; Escherichia coli, KUB No. 5611, AR Bank # 114)
0.25 µg/mL: MIC (Enterobacterales; Enterobacter cloacae, Enterobacter cloacae group, KUB No. 5629, AR Bank # 132) | MIC (Enterobacterales; Enterobacter cloacae, KUB No. 5570, AR Bank # 73) | MIC (Enterobacterales; Escherichia coli, KUB No. 5564, AR Bank # 67) | MIC (Enterobacterales; Escherichia coli, KUB No. 5581, AR Bank # 84)
4 µg/mL: MIC (A. baumannii; Acinetobacter baumannii, KUB No. 5741, AR Bank #308) | MIC (Enterobacterales; Enterobacter cloacae, KUB No. 5529, AR Bank# 32) | MIC (Enterobacterales; Enterobacter cloacae, KUB No. 5763, AR Bank # 367)
